The target in assay [1] is Serine/threonine-protein kinase MRCK gamma (Homo sapiens) (UniProt Q6DT37). To be noted: at 10 µM.
In assay [2] the target is SRSF protein kinase 3 (Homo sapiens) (UniProt Q9UPE1). As to the kind of experiment: Selectivity interaction (KinomeScan (DiscoverX)) EUB0001079a SRPK3. Particulars: at 1 µM.
Assay [3] deals with Proto-oncogene tyrosine-protein kinase ROS (Homo sapiens) (UniProt P08922). Nature of the assay: Selectivity interaction (KinomeScan (DiscoverX)) EUB0001079a ROS1. Particulars: at 1 µM.
Assay [4] addresses Serine/threonine-protein kinase 26 (Homo sapiens, UniProt Q9P289). Nature of the assay: Selectivity interaction (KinomeScan (DiscoverX)) EUB0001079a STK26. Particulars: at 1 µM.
For assay [5], the target named is T1, Inhibitor of nuclear factor kappa-B kinase subunit beta (Homo sapiens) (UniProt O14920).
T1 sequence (whole entry): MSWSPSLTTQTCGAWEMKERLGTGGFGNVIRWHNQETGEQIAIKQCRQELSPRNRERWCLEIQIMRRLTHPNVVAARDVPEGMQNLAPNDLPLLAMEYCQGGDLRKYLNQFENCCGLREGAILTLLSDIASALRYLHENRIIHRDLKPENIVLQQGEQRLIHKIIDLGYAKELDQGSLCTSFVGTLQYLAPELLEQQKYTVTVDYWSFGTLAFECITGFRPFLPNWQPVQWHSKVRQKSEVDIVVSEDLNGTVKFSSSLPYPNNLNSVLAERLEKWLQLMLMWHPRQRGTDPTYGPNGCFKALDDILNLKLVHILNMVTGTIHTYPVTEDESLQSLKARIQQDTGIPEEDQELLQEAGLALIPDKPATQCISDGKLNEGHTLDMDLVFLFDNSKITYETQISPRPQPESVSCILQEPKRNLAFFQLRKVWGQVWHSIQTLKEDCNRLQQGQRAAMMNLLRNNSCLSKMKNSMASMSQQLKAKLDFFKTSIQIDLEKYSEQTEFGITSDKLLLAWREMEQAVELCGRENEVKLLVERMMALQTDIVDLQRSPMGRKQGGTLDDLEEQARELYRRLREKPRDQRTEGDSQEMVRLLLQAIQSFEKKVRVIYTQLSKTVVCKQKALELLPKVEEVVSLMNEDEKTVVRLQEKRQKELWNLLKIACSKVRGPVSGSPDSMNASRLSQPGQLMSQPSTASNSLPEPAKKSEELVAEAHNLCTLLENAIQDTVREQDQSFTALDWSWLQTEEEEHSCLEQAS
Nature of the assay: Selectivity interaction (KinomeScan (DiscoverX)) EUB0001049a IKBKB. To be noted: at 1 µM.

The target of assay [6] is Histone-lysine N-methyltransferase SETDB1 (Homo sapiens) (UniProt Q15047). As to the kind of experiment: Selectivity interaction (Transferase panel (protein, RNA, and DNA methyltransferases. and EP300 (acetyltransferase))) EUB0000270b SETDB1.
The subject of assay [7] is Tyrosine-protein kinase ABL1 (Homo sapiens), P00519 [F317I]. Nature of the assay: Selectivity interaction (KinomeScan (DiscoverX)) EUB0000045b ABL1. To be noted: at 1 µM.
Assay [8] has as its target Epidermal growth factor receptor (Homo sapiens, UniProt P00533). As to the kind of experiment: Selectivity interaction (Kinase panel (Invitrogen)) EUB0000639a EGFR. Particulars: at 200 nM.
In assay [9] the target is Interferon-induced, double-stranded RNA-activated protein kinase (Homo sapiens) (UniProt P19525). Nature of the assay: Selectivity interaction (ActivX KiNativ screen (kinase selectivity in THP-1 cell lysates)) EUB0000639a EIF2AK2. The format is subcellular. Particulars: lysate.
Assay [10] has as its target T2, Tyrosine-protein kinase Tec (Homo sapiens) (UniProt P42680).
T2 sequence (whole entry): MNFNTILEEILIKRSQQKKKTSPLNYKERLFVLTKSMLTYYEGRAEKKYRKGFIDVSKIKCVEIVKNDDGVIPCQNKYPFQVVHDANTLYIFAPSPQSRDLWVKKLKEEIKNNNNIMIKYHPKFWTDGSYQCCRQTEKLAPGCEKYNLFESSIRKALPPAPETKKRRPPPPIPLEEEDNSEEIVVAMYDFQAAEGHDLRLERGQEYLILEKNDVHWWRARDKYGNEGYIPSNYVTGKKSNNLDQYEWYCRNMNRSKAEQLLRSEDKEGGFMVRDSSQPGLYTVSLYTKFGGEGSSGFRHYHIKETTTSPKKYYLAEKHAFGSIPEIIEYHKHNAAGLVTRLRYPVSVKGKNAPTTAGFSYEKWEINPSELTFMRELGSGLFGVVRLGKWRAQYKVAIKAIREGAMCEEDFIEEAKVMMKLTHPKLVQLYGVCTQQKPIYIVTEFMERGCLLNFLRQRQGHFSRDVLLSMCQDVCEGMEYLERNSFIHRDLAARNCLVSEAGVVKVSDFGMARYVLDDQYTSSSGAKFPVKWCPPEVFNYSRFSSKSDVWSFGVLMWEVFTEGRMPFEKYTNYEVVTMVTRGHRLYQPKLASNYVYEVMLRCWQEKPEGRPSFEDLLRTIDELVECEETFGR
Nature of the assay: Selectivity interaction (ActivX KiNativ screen (kinase selectivity in THP-1 cell lysates)) EUB0000639a TEC. Particulars: lysate, at 1 µM. The format is subcellular.

The target in assay [11] is T3, Serine/threonine-protein kinase DCLK1 (Homo sapiens) (UniProt O15075).
T3 sequence (whole entry): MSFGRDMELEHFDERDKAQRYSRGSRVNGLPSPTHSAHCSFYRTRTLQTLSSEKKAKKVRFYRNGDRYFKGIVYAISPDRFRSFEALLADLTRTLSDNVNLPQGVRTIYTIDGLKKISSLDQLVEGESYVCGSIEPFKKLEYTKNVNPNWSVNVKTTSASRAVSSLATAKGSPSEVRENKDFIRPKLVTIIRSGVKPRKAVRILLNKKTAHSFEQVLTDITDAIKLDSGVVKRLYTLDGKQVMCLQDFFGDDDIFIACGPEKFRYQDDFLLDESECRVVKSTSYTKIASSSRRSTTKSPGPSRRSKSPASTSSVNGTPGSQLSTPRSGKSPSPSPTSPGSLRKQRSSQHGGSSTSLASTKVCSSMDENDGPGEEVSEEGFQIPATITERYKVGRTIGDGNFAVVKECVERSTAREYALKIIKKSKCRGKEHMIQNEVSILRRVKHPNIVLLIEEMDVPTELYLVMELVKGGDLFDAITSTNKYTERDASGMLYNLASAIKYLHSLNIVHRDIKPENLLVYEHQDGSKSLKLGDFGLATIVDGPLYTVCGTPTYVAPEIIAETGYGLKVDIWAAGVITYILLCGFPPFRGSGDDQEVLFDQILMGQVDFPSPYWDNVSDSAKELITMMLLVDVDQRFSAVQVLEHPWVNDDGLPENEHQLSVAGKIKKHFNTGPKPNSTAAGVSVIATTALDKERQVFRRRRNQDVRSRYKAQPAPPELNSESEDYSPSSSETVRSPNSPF
Nature of the assay: Selectivity interaction (KinomeScan (DiscoverX)) EUB0000595a DCLK1. Particulars: at 10 µM.

Assay [12] concerns the target Tyrosine-protein kinase Blk (Homo sapiens) (UniProt P51451). As to the kind of experiment: Selectivity interaction (KinomeScan (DiscoverX)) EUB0001619a BLK. Particulars: at 1 µM.

Sequence of Interferon-induced, double-stranded RNA-activated protein kinase (Homo sapiens) (P19525 whole entry): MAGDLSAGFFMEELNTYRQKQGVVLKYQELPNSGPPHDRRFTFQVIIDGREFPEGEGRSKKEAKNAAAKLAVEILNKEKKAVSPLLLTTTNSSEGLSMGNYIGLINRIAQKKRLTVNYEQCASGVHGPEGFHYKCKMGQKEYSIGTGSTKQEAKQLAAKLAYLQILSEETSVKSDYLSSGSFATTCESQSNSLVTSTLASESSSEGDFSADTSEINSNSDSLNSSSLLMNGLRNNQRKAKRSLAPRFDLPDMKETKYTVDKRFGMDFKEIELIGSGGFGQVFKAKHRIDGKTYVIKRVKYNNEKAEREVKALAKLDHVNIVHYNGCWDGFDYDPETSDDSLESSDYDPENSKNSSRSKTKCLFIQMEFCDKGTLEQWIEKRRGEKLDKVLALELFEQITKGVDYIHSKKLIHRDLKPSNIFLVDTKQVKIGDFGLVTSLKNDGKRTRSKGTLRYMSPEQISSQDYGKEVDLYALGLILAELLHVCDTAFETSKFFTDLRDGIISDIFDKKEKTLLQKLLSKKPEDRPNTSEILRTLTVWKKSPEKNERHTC
Sequence of SRSF protein kinase 3 (Homo sapiens) (Q9UPE1 whole entry): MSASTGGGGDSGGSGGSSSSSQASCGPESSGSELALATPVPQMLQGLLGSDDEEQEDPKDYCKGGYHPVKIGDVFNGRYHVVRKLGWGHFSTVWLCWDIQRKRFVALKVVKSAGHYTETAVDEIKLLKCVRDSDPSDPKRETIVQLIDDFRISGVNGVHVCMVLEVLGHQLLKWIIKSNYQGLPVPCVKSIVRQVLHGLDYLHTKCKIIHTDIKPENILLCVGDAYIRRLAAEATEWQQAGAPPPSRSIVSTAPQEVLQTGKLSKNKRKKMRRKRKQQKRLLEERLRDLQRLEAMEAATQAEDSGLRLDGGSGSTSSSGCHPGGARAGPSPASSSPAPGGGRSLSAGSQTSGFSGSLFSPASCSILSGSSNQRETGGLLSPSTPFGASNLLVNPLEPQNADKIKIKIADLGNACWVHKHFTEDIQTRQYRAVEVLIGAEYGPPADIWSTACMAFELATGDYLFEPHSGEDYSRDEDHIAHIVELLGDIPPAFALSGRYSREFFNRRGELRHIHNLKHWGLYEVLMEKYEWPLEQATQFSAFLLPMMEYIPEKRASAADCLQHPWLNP
Sequence of Serine/threonine-protein kinase 26 (Q9P289 2-416 limits assumed): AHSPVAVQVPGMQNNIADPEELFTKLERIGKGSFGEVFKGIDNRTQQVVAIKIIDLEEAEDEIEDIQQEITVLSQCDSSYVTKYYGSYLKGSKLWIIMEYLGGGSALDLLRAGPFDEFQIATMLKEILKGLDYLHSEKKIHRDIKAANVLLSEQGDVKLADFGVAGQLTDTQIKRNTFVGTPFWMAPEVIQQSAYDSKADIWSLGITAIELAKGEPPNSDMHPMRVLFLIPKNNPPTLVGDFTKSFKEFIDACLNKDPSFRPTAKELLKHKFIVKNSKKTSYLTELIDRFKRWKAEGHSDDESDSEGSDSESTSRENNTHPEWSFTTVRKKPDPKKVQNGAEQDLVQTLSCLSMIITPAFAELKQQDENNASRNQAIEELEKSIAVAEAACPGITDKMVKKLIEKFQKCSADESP
Sequence of Tyrosine-protein kinase Blk (Homo sapiens) (P51451 2-505 limits assumed): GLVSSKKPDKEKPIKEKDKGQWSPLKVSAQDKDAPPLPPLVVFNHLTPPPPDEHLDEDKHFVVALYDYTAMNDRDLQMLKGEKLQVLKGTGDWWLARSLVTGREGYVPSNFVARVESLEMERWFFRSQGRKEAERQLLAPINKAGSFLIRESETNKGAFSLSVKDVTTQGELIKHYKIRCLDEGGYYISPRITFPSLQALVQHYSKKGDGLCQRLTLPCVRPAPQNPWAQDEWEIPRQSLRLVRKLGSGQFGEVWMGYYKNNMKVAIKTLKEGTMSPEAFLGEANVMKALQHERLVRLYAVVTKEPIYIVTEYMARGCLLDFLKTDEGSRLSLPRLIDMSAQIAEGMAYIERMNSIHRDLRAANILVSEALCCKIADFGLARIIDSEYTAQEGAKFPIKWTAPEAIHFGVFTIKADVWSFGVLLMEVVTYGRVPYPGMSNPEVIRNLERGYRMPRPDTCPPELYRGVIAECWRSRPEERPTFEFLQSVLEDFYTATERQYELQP
Sequence of Proto-oncogene tyrosine-protein kinase ROS (Homo sapiens) (P08922 whole entry): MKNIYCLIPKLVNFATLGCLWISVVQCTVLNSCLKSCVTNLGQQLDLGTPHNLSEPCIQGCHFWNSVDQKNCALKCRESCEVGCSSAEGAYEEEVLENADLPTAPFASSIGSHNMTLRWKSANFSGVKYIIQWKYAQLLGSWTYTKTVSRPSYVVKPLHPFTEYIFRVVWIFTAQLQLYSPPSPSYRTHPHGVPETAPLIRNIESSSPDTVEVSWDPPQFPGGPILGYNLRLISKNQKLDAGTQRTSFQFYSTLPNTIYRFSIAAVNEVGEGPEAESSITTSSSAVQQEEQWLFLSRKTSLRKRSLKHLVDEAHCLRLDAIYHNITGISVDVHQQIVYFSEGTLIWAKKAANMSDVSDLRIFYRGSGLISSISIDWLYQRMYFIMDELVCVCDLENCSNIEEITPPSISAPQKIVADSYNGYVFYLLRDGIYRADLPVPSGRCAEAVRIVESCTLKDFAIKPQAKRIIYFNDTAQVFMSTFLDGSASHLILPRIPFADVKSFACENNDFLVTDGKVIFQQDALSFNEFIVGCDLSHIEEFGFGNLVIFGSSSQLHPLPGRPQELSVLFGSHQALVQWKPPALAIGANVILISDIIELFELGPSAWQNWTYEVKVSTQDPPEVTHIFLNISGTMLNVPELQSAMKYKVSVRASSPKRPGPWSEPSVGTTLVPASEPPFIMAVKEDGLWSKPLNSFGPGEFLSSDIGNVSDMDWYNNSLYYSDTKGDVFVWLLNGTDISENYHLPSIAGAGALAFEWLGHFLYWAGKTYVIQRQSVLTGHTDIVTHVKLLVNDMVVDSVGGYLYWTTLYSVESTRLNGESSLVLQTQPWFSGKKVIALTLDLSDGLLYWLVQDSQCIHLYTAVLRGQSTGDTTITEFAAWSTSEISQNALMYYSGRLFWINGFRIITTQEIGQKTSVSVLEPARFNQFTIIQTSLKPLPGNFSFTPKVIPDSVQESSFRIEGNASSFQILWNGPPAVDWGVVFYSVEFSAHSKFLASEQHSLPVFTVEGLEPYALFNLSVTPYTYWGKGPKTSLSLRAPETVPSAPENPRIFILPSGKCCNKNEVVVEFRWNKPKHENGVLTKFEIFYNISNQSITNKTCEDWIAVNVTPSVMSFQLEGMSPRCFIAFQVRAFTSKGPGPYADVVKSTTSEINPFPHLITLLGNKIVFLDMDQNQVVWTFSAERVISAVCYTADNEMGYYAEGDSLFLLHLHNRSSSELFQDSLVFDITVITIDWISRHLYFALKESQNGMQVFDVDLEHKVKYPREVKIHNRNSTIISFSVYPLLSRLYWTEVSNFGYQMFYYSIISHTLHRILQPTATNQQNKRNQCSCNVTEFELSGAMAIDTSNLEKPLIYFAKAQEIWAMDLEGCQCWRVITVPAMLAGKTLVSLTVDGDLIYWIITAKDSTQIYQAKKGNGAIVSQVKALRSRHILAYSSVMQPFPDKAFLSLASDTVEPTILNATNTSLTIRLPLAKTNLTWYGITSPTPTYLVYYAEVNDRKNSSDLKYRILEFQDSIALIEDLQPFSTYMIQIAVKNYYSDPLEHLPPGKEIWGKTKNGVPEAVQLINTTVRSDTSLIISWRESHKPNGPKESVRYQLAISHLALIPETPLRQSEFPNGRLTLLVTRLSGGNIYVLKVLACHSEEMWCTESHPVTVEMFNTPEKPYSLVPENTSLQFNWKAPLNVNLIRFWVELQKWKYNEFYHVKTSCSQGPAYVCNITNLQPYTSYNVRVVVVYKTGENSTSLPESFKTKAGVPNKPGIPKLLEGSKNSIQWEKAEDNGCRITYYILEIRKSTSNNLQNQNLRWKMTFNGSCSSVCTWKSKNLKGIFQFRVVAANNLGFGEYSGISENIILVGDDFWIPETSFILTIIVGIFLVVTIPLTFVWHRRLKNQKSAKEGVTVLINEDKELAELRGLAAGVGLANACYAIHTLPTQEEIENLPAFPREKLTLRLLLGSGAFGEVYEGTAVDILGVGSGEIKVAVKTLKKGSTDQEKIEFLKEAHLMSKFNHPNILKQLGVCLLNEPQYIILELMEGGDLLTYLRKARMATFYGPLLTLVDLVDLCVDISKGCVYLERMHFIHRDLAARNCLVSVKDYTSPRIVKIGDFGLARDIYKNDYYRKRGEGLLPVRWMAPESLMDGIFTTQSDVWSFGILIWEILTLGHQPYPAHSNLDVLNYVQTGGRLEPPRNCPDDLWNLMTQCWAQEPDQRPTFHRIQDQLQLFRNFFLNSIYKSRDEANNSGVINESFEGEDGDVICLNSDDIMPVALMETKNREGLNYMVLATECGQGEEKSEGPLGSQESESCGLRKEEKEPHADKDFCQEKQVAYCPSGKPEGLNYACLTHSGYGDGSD

Turning to `Cc1cc([C@@H](C)Nc2ccccc2C(=O)O)c2nc(N3CCOCC3)cc(=O)n2c1` [AZD-6482], the % of control in [1] worked out at 100%.
In the case of `Nc1cnc(N2CCc3cc(S(=O)(=O)Nc4c(F)cc(Cl)cc4F)cc(N4CCCC4=O)c32)nc1` [TP-020n], the % of control in assay [2] stood at 100%; in assay [3], 99%; in [4], 83%.
Regarding `COc1cc(Nc2nc(C)cc(-c3cnn4nc(OC)ccc34)n2)cc(C(F)(F)F)c1`, the % of control in assay [5] was 81%.
`Cc1cc(CN)cc(C)c1-c1ncn(C)c1-c1cncn1C`: the % activity in assay [6] (at 1 µM) was more than 90%; in assay [6] (at 10 µM) it was more than 80%.
Molecule `C=CC(=O)Nc1cc(-n2c(=O)ccc3cnc4ccc(-c5ccc(NS(C)(=O)=O)cc5)cc4c32)ccc1C` displayed a % of control in assay [7] of 81%.
`CC[C@@H]1[C@H](F)C(=O)N[C@@H]1COc1nccc2cc(C(N)=O)c(OC)cc12` [ZIMLOVISERTIB]: the % of inhibition in assay [8] is 1.86%; in assay [9] (at 0.01 µM), 0.5%; in [9] (at 0.04 µM) it was -0.3%; in assay [9] (at 0.2 µM), 7.5%; in [9] (at 1 µM) it was -3.5%; in [9] (at 5 µM), -12.9%. In addition, in assay [10], the % of inhibition is -60.5%.
Turning to `COCC(=O)NC/C=C/c1ccc2ncnc(Nc3ccc(Oc4ccc(C)nc4)c(C)c3)c2c1` [CP-724714], in assay [11], the % of control came out at 100%.
In assay [12], `N#Cc1cccc(-c2c[nH]c3ncnc(N4CCOCC4)c23)c1` gave a % of control of 72%.

These data come from ChEMBL document CHEMBL5465560, “Selectivity Literature for EUbOPEN Chemogenomic Library” (2024).
